According to patent US20180280450A1, “METHOD OF PROMOTING IMMUNE HEALTH USING THE WATER-SOLUBLE COMPONENT FROM GENUS EUGLENA ORGANISM” (KEMIN INDUSTRIES, INC., priority 2017, published 2018):

Columns and labels:
T-cells = experiment: Immune cell activation by flow cytometry (CD69/CD25) on T-cells in PBMC cultures; format: cell-based, human; details: 24-hour PBMC cultures
Description: (§1) Human peripheral blood mononuclear cell (PBMC) cultures were used for this testing. A set of cultures was left untreated as negative control cultures for immune activation. Triplicate sets of cultures were treated with serial dilutions of the test product. The inflammatory bacterial lipopolysaccharide LPS from E. coli was used as a positive control for activation. The cultures were incubated for 24 hours, after which the cells and the culture supernatants were harvested and used to monitor the reactions in each culture. […]
(§2) The cells were stained with a combination of monoclonal antibodies to monitor activation status, and analyzed by multi-parameter flow cytometry, using an acoustic dual-laser Attune® flow cytometer. […]
(§3) Immune cell activation was analyzed after the cell viability testing. […] The cells were stained with a combination of monoclonal antibodies to monitor activation, and analyzed by multi-parameter flow cytometry, using an acoustic dual laser Attune® flow cytometer. […]
(§4) The cellular staining for activation, performed using a fluorescently labelled monoclonal antibody to the CD69 and CD25 activation markers, allowed researchers to measure cellular activation by fluorescence intensity. […]

[1] = test system: CD69/CD25 double positive lymphocytes; experiment: CD69/CD25 double positive lymphocytes by flow cytometry in PBMC cultures; format: cell-based, human; details: 24-hour PBMC cultures, dose not specified
Description: as §1, §2, §3, §4

non-T non-NK lymphocytes = experiment: Immune cell activation by flow cytometry (CD69/CD25) on non-T non-NK lymphocytes in PBMC cultures; format: cell-based, human; details: 24-hour PBMC cultures
Description: as §1, §2, §3, §4

monocytes = experiment: Immune cell activation by flow cytometry (CD69) on monocytes in PBMC cultures; format: cell-based, human; details: dose not specified
Description: as §1, §2, §3, §4

human immune cells = experiment: In vitro bioassay screening of Test Products in cell cultures of human immune cells (overall summary); format: cell-based; details: sample preparation after 0.2 micron filtration
Description: Bioassay screening of nutraceutical ingredients and one blend were performed to evaluate their potency and mechanisms of action. The screening involved testing in cell cultures involving human immune cells. As part of this process, selected immune ingredients currently on the market were compared for similarities and differences of mechanisms of action, as well as efficacy (active dose comparison). Eight Test Products labeled Test Products A-H, as noted in the various tables and explained below were employed in this study.
The water-soluble Test Products were prepared by taking 0.25 grams of powder into 5 mL of physiological saline. The suspension was incubated under gentle agitation for one hour, after which any remaining solids were removed by centrifugation. Insoluble, particulate Test Products were prepared by taking 0.5 grams of powder into 3 mL of physiological saline. One (1) mL ceramic beads (200 uM zirconium) were added, and bead milling performed by 10 cycles of repeated 60-second pulsing (vortex high speed, 60 one (1) second pulses) with placement of samples in an ice-bath between cycles. Subsequently, seven (7) mL of physiological saline was then added to bring the samples to a 50 mg/mL final concentration. […]

Solubility in water = format: physicochemical

- solubility in water (Solubility in water): completely insoluble
Substance: paramylon [Test Product D]
- CD25 expression on T-cells (T-cells; at lower doses): varying degrees of suppressing CD25 expression
- CD69 expression on T-cells (T-cells; figures show T-cells): only exerted minor effects
- number of CD69/CD25 double-positive lymphocytes [1]: only exerted minor, if any, effects
- CD69 expression on non-T non-NK cells (non-T non-NK lymphocytes; dose not specified (FIG. 19)): only exerted minor, if any, effects
- CD25 expression on non-T non-NK cells (non-T non-NK lymphocytes; FIG. 21 shows CD25): only exerted minor, if any, effects
- CD69 expression on monocytes (monocytes): only exerted minor, if any, effects
- activity in the in vitro screen (overall) (human immune cells): essentially no activity
- activity in the in vitro screen (overall) (human immune cells; listed as Sample D): essentially inactive
